In US20050163849A1 (priority 2003, published 2005):

Assay: Intracolonic ligated model, lower G.I. absorption and bioavailability of iron-transport moiety complexes
Conditions: rat, intracolonic bolus into ligated colon, 10 mg iron/rat
Method: Absorption of the complexes is evaluated from blood samples taken from the animal as a function of time after intubation. A rise in the hematocrit level in the blood is indicative of absorption.
A segment of proximal colon is isolated and the colon is flushed of fecal materials. […] The colonic contents are flushed out and the colon is returned to the abdomen of the animal.
At the end of the 4 hour test period, the rats are euthanized with an overdose of pentobarbital. Colonic segments from each rat are excised and opened longitudinally along the anti-mesenteric border. Each segment is observed macroscopically for irritation and any abnormality noted. The excised colons are placed on graph paper and measured to approximate colonic surface area.

With “ferrous laurate [ferrous-laurate complex]” the “Increased absorption relative to ferrous sulfate (change in hematocrit level)” value was “at least two-fold”.
